Experimental data from ChEMBL document CHEMBL1155024, “Microbial transformation of cinobufagin by Syncephalastrum racemosum” (J Nat Prod, 2008).

System: Bel-7402
Assay: Cytotoxicity against human Bel7402 cells by MTT assay
Format: functional, cell-based

| Structure (SMILES) | IC50 [µM] |
| --- | --- |
| CC(=O)O[C@H]1[C@H]2O[C@]23[C@@H]2[C@@H](O)C[C@@H]4C[C@@H](O)CC[C@]4(C)[C@H]2CC[C@]3(C)[C@H]1c1ccc(=O)oc1 | 0.54 |
| CC(=O)O[C@H]1[C@H]2O[C@]23[C@@H]2CC[C@]4(O)C[C@@H](O)CC[C@]4(C)[C@H]2C[C@@H](O)[C@]3(C)[C@H]1c1ccc(=O)oc1 | 0.66 |
| CC(=O)O[C@H]1[C@H]2O[C@]23[C@@H]2CC[C@@H]4C[C@@H](O)CC[C@]4(C)[C@H]2C[C@@H](O)[C@]3(C)[C@H]1c1ccc(=O)oc1 | 0.37 |
| CC(=O)O[C@H]1[C@H]2O[C@]23[C@@H]2CC[C@@H]4C[C@@H](O)CC[C@]4(C)[C@H]2CC[C@]3(C)[C@H]1c1ccc(=O)oc1 [CINOBUFAGIN] | 0.1 |
| CC(=O)O[C@H]1[C@H]2O[C@]23[C@@H]2CC[C@]4(O)C[C@@H](O)CC[C@]4(C)[C@H]2CC[C@]3(C)[C@H]1c1ccc(=O)oc1 [CINOBUFOTALIN] | 1.21 |
